# Source: ChEMBL document CHEMBL3885861, “Open TG-GATES”
# Organism: Rattus norvegicus
# Test: Open TG-GATES - Regimen: Single
# Format: toxicity, organism-based, Sprague-Dawley
# Set-up: regimen Single, gender Male, age 6 weeks
# Conditions: in vivo, po, 100 mg/kg, route gavage, dose level Middle; for APTT / Bas / Eos / Fbg / Hb / Ht / Lym / MCH / MCHC / MCV / Mono / Neu / PT / Plat / RBC / Ret / WBC: tissue Blood; for KIDNEY_L / KIDNEY_R / KIDNEY_TOTAL: tissue Kidney; for LIVER: tissue Liver; for A/G / ALP / ALT / AST / BUN / CRE / Ca / Cl / DBIL / GLC / IP / K / LDH / Na / PL / RALB / TBIL / TC / TG / TP / gamma-GTP: tissue Plasma
smiles,measurement,setting,value
NC(=O)N/N=C/c1ccc([N+](=O)[O-])o1 [NITROFURAZONE],TERMINAL_BW,3 h,183.7 g
same,APTT,3 h,16.6 s
same,Bas,3 h,0.2%
same,Eos,3 h,1%
same,Fbg,3 h,235.8 mg/dL
same,Hb,3 h,12.4 g/dL
same,Ht,3 h,38.5%
same,Lym,3 h,73.4%
same,MCH,3 h,21.7 pg
same,MCHC,3 h,32.3%
same,MCV,3 h,67.2 fL
same,Mono,3 h,5.2%
same,Neu,3 h,19.6%
same,PT,3 h,14.8 s
same,Plat,3 h,123.7 x10_4/uL
same,RBC,3 h,572.4 x10_4/ul
same,Ret,3 h,11.4%
same,WBC,3 h,71.3 x10_2/uL
same,KIDNEY_L,3 h,0.8 g
same,KIDNEY_R,3 h,0.8 g
same,KIDNEY_TOTAL,3 h,1.6 g
same,LIVER,3 h,7.7 g
same,A/G,3 h,0.9
same,ALP,3 h,1361.8 IU/L
same,ALT,3 h,41.2 IU/L
same,AST,3 h,74.8 IU/L
same,BUN,3 h,11.8 mg/dL
same,CRE,3 h,0.2 mg/dL
same,Ca,3 h,11.3 mg/dL
same,Cl,3 h,104.8 meq/L
same,DBIL,3 h,0.006 mg/dL
same,GLC,3 h,177.6 mg/dL
same,IP,3 h,8.8 mg/dL
same,K,3 h,4.3 meq/L
same,LDH,3 h,51.6 IU/L
same,Na,3 h,140.8 meq/L
same,PL,3 h,127.6 mg/dL
same,RALB,3 h,2.4 g/dL
same,TBIL,3 h,0.06 mg/dL
same,TC,3 h,73.4 mg/dL
same,TG,3 h,29.8 mg/dL
same,TP,3 h,5.2 g/dL
same,gamma-GTP,3 h,1.2 IU/L
same,TERMINAL_BW,6 h,182.2 g
same,APTT,6 h,16 s
same,Bas,6 h,0%
same,Eos,6 h,1%
same,Fbg,6 h,272.8 mg/dL
same,Hb,6 h,12.8 g/dL
same,Ht,6 h,40%
same,Lym,6 h,71.2%
same,MCH,6 h,21.3 pg
same,MCHC,6 h,32%
same,MCV,6 h,66.4 fL
same,Mono,6 h,3.2%
same,Neu,6 h,23.8%
same,PT,6 h,14.6 s
same,Plat,6 h,112.7 x10_4/uL
same,RBC,6 h,602 x10_4/ul
same,Ret,6 h,10.1%
same,WBC,6 h,85.4 x10_2/uL
same,KIDNEY_L,6 h,0.8 g
same,KIDNEY_R,6 h,0.8 g
same,KIDNEY_TOTAL,6 h,1.7 g
same,LIVER,6 h,7.3 g
same,A/G,6 h,0.9
same,ALP,6 h,1451.4 IU/L
same,ALT,6 h,41.4 IU/L
same,AST,6 h,74 IU/L
same,BUN,6 h,8.6 mg/dL
same,CRE,6 h,0.2 mg/dL
same,Ca,6 h,11.3 mg/dL
same,Cl,6 h,105.2 meq/L
same,DBIL,6 h,0.01 mg/dL
same,GLC,6 h,162.4 mg/dL
same,IP,6 h,9.8 mg/dL
same,K,6 h,3.8 meq/L
same,LDH,6 h,85.8 IU/L
same,Na,6 h,142.4 meq/L
same,PL,6 h,146.6 mg/dL
same,RALB,6 h,2.4 g/dL
same,TBIL,6 h,0.072 mg/dL
same,TC,6 h,89.4 mg/dL
same,TG,6 h,25.8 mg/dL
same,TP,6 h,5.2 g/dL
same,gamma-GTP,6 h,1.2 IU/L
same,TERMINAL_BW,9 h,176.6 g
same,APTT,9 h,15.8 s
same,Bas,9 h,0%
same,Eos,9 h,1%
same,Fbg,9 h,270.8 mg/dL
same,Hb,9 h,13.5 g/dL
same,Ht,9 h,41.4%
same,Lym,9 h,72.5%
same,MCH,9 h,21.6 pg
same,MCHC,9 h,32.4%
same,MCV,9 h,66.6 fL
same,Mono,9 h,2.8%
same,Neu,9 h,22.8%
same,PT,9 h,14.8 s
same,Plat,9 h,103.9 x10_4/uL
same,RBC,9 h,622.2 x10_4/ul
same,Ret,9 h,10.2%
same,WBC,9 h,69.6 x10_2/uL
same,KIDNEY_L,9 h,0.8 g
same,KIDNEY_R,9 h,0.8 g
same,KIDNEY_TOTAL,9 h,1.6 g
same,LIVER,9 h,7.2 g
same,A/G,9 h,0.9
same,ALP,9 h,1273.8 IU/L
same,ALT,9 h,39 IU/L
same,AST,9 h,74.5 IU/L
same,BUN,9 h,9 mg/dL
same,CRE,9 h,0.2 mg/dL
same,Ca,9 h,10.9 mg/dL
same,Cl,9 h,104.5 meq/L
same,DBIL,9 h,0.0175 mg/dL
same,GLC,9 h,165 mg/dL
same,IP,9 h,11.4 mg/dL
same,K,9 h,4 meq/L
same,LDH,9 h,69.2 IU/L
same,Na,9 h,142.2 meq/L
same,PL,9 h,149.5 mg/dL
same,RALB,9 h,2.4 g/dL
same,TBIL,9 h,0.0675 mg/dL
same,TC,9 h,83.5 mg/dL
same,TG,9 h,38.8 mg/dL
same,TP,9 h,5.1 g/dL
same,gamma-GTP,9 h,1.2 IU/L
same,TERMINAL_BW,24 h,185.1 g
same,APTT,24 h,15.7 s
same,Bas,24 h,0%
same,Eos,24 h,0.6%
same,Fbg,24 h,296 mg/dL
same,Hb,24 h,13.1 g/dL
same,Ht,24 h,40.5%
same,Lym,24 h,83.4%
same,MCH,24 h,21.8 pg
same,MCHC,24 h,32.4%
same,MCV,24 h,67.2 fL
same,Mono,24 h,3%
same,Neu,24 h,12.2%
same,PT,24 h,14.8 s
same,Plat,24 h,109 x10_4/uL
same,RBC,24 h,602 x10_4/ul
same,Ret,24 h,9.3%
same,WBC,24 h,90.2 x10_2/uL
same,KIDNEY_L,24 h,0.8 g
same,KIDNEY_R,24 h,0.8 g
same,KIDNEY_TOTAL,24 h,1.7 g
same,LIVER,24 h,8.6 g
same,A/G,24 h,0.9
same,ALP,24 h,1441.6 IU/L
same,ALT,24 h,44.6 IU/L
same,AST,24 h,78.4 IU/L
same,BUN,24 h,14 mg/dL
same,CRE,24 h,0.2 mg/dL
same,Ca,24 h,11 mg/dL
same,Cl,24 h,103.6 meq/L
same,DBIL,24 h,0.016 mg/dL
same,GLC,24 h,168.8 mg/dL
same,IP,24 h,8.5 mg/dL
same,K,24 h,4 meq/L
same,LDH,24 h,71.6 IU/L
same,Na,24 h,140.6 meq/L
same,PL,24 h,140.6 mg/dL
same,RALB,24 h,2.5 g/dL
same,TBIL,24 h,0.058 mg/dL
same,TC,24 h,77.6 mg/dL
same,TG,24 h,73.8 mg/dL
same,TP,24 h,5.4 g/dL
same,gamma-GTP,24 h,1 IU/L
